Experimental data reported in patent US8685977B2, “Chemical compounds” (Pfizer Limited, priority 2010, dated 2014).

These molecules were tested against T1, Nav1.7 (or SCN9A) channel (Homo sapiens, UniProt Q15858) (assay: Nav1.7 PatchXpress 7000 automated electrophysiology assay (HEK cells stably expressing hSCN9A)). Conditions: voltage-clamped at V1/2 of inactivation, read-out: Nav1.7 EIC50.
T1 construct: expressed in transfected cells
Format: cell-based
Method: The ability of the compounds of formula (I) to block the Nav1.7 (or SCN9A) channel was measured using the assays described below.
Human Embryonic Kidney (HEK) cells were transfected with an hSCN9A construct using lipofectamine reagent (Invitrogen), using standard techniques. Cells stably expressing the hSCN9A constructs were identified by their resistance to G-418 (400 μg/ml). Clones were screened for expression using the whole-cell voltage-clamp technique.
HEK cells stably transfected with hSCN9A were maintained in DMEM medium supplemented with 10% heat-inactivated fetal bovine serum and 400 μg/ml G-418 in an incubator at 37° C. with a humidified atmosphere of 10% CO2. For HTS, cells were harvested from flasks by trypsinization and replated in an appropriate multi-well plate (typically 96 or 384 wells/plate) such that confluence would be achieved within 24 hours of plating. For electrophysiological studies, cells were removed from the culture flask by brief trypsinization and re-plated at low density onto glass cover slips. Cells were typically used for electrophysiological experiments within 24 to 72 hours after plating.
Cover slips containing HEK cells expressing hSCN9A were placed in a bath on the stage of an inverted microscope and perfused (approximately 1 ml/minutes) with extracellular solution of the following composition: 138 mM NaCl, 2 mM CaCl2, 5.4 mM KCl, 1 mM MgCl2, 10 mM glucose, and 10 mM HEPES, pH 7.4, with NaOH. […] The osmolarity of the extracellular and intracellular solutions was 300 mOsm/kg and 295 mOsm/kg, respectively. All recordings were made at room temperature (22-24° C.) using AXOPATCH 200B amplifiers and PCLAMP software (Axon Instruments, Burlingame, Calif.).
HEK cells stably transfected with hSCN9A were viewed under Hoffman contrast optics and placed in front of an array of flow pipes emitting either control or compound-containing extracellular solutions. All compounds were dissolved in dimethyl sulfoxide to make 10 mM stock solutions, which were then diluted into extracellular solution to attain the final concentrations desired. […] The voltage-dependence of inactivation was determined by applying a series of depolarizing prepulses (8 sec long in 10 mV increments) from a negative holding potential. The voltage was then immediately stepped to 0 mV to assess the magnitude of the sodium current. Currents elicited at 0 mV were plotted as a function of prepulse potential to allow estimation of the voltage at which 50% of the channels were inactivated (midpoint of inactivation or V1/2). Compounds were tested for their ability to inhibit hSCN9A sodium channels by activating the channel with a 20 msec voltage step to 0 mV following an 8 second conditioning prepulse to the empirically determined V1/2. Compound effect (% inhibition) was determined by difference in current amplitude before and after application of test compounds. For ease of comparison, “estimated IC-50” (EIC50) values were calculated from single point electrophysiology data by the following equation, (tested concentration, uM)×(100-% inhibition/% inhibition). Inhibition values <20% and >80% were excluded from the calculation.
Electrophysiological assays were conducted with PatchXpress 7000 hardware and associated software (Molecular Devices Corp). All assay buffers and solutions were identical to those used in conventional whole-cell voltage clamp experiments described above. hSCN9A cells were grown as above to 50%-80% confluency and harvested by trypsinization. Trypsinized cells were washed and resuspended in extracellular buffer at a concentration of 1×10^6 cells/ml. The onboard liquid handling facility of the PatchXpress was used for dispensing cells and application of test compounds. Determination of the voltage midpoint of inactivation was as described for conventional whole-cell recordings. Cells were then voltage-clamped to the empirically determined V1/2 and current was activated by a 20 msec voltage step to 0 mV. […]

T1 sequence (Q15858 whole entry): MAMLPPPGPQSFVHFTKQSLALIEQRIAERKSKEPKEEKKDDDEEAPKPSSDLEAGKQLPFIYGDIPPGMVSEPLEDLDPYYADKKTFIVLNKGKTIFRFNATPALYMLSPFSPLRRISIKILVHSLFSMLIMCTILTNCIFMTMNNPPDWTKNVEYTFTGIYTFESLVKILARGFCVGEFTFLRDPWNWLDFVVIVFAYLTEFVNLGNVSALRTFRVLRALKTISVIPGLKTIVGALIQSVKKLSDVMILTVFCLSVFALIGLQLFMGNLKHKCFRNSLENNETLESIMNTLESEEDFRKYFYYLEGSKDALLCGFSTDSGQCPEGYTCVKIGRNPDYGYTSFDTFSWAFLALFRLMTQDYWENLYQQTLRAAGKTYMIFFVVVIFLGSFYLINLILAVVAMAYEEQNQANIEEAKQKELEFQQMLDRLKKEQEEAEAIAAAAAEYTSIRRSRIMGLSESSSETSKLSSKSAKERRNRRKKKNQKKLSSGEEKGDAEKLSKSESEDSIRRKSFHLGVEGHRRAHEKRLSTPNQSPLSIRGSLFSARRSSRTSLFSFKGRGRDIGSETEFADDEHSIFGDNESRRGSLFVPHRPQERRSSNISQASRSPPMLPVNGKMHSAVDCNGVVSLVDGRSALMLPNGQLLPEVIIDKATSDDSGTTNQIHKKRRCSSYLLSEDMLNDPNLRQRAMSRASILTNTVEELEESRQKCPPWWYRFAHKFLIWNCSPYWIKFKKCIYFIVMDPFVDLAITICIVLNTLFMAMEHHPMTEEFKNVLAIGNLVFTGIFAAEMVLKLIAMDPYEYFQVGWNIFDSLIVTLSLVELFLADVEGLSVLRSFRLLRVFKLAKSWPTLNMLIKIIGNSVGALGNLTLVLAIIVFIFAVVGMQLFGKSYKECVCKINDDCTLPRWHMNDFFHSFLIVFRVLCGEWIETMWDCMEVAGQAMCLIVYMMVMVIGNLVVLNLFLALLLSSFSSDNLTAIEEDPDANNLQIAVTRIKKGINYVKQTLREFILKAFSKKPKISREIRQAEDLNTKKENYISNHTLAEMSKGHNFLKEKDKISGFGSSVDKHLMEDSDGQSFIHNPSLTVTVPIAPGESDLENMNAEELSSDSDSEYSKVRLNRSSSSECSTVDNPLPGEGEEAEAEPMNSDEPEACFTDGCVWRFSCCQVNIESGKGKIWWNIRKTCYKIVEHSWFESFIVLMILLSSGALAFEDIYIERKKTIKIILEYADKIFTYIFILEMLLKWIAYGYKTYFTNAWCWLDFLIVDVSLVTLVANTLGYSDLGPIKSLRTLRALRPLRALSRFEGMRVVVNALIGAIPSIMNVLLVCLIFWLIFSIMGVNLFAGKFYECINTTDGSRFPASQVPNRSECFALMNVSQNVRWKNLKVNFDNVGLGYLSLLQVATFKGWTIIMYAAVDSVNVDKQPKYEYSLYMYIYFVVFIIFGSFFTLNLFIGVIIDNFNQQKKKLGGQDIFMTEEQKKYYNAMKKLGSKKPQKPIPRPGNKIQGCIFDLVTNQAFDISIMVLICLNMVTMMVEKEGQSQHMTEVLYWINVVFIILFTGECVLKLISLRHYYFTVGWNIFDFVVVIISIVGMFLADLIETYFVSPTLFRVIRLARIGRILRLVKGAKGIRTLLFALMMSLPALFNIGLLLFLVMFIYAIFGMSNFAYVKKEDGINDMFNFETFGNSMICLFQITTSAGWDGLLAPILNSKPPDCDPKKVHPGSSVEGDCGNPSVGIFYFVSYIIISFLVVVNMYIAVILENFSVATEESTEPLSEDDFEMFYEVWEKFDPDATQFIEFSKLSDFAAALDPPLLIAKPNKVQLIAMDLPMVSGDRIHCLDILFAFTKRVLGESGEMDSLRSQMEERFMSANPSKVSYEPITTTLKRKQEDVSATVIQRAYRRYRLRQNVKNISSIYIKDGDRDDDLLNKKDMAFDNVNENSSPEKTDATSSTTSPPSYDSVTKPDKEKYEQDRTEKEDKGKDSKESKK

| Structure (SMILES) | IC50 [µM] |
| --- | --- |
| CS(=O)(=O)NC(=O)c1cc(F)c(Oc2ccc(Cl)c(C(F)(F)F)c2)cc1Cl [Example 77, 2-chloro-4-(4-chloro-3-(trifluoromethyl)phenoxy)-5-fluoro-N-(methylsulfonyl)benzamide] | 0.53 |
| COc1c(C(=O)NS(C)(=O)=O)ccc(Oc2ccc(Cl)c(C(F)(F)F)c2)c1F [Example 78, 4-(4-chloro-3-(trifluoromethyl)phenoxy)-3-fluoro-2-methoxy-N-(methylsulfonyl)benzamide] | 4.2 |
| Cn1nccc1-c1cc(Cl)ccc1Oc1cc(F)c(C(=O)NS(C)(=O)=O)cc1Cl [Example 80, 5-chloro-4-[4-chloro-2-(1-methyl-1H-pyrazol-5-yl)phenoxy]-2-fluoro-N-(methylsulfonyl)benzamide] | > 3 |
| Cc1cc(C(=O)NS(C)(=O)=O)ccc1Oc1ccc(Cl)c(Cl)c1 [Example 81, 4-(3,4-dichlorophenoxy)-3-methyl-N-(methylsulfonyl)benzamide] | 0.23 |
| CS(=O)(=O)NC(=O)c1ccc(Oc2ccc(Cl)c(Cl)c2)c(Cl)c1 [Example 82, 3-chloro-4-(3,4-dichlorophenoxy)-N-(methylsulfonyl)benzamide] | 0.14 |
| Cn1nccc1-c1cc(Cl)ccc1Oc1ccc(C(=O)NS(C)(=O)=O)cc1 [Example 83, 4-(4-chloro-2-(1-methyl-1H-pyrazol-5-yl)phenoxy)-N-(methylsulfonyl)benzamide] | > 3 |
| COc1cc(C)ccc1Oc1cc(F)c(C(=O)NS(C)(=O)=O)cc1F [Example 85, 2,5-difluoro-4-(2-methoxy-4-methylphenoxy)-N-(methylsulfonyl)benzamide] | > 1 |
| COc1ccc(C)cc1Oc1cc(F)c(C(=O)NS(C)(=O)=O)cc1F [Example 86, 2,5-difluoro-4-(2-methoxy-5-methylphenoxy)-N-(methylsulfonyl)benzamide] | > 1 |
| CS(=O)(=O)NC(=O)c1cc(F)c(Oc2cccc(Cl)c2Cl)cc1F [Example 87, 4-(2,3-dichlorophenoxy)-2,5-difluoro-N-(methylsulfonyl)benzamide] | 6.9 |
| COc1ccc(C#N)cc1Oc1cc(F)c(C(=O)NS(C)(=O)=O)cc1F [Example 88, 4-(5-cyano-2-methoxyphenoxy)-2,5-difluoro-N-(methylsulfonyl)benzamide] | > 3 |
| CS(=O)(=O)NC(=O)c1cc(F)c(Oc2cc(F)ccc2F)cc1F [Example 89, 4-(2,5-difluorophenoxy)-2,5-difluoro-N-(methylsulfonyl)benzamide] | > 3 |
| CC(C)Oc1ccccc1Oc1cc(F)c(C(=O)NS(C)(=O)=O)cc1F [Example 90, 2,5-difluoro-4-(2-isopropoxyphenoxy)-N-(methylsulfonyl)benzamide] | > 0.3 |
| CS(=O)(=O)NC(=O)c1cc(F)c(Oc2c(F)cccc2Cl)cc1F [Example 91, 4-(2-chloro-6-fluorophenoxy)-2,5-difluoro-N-(methylsulfonyl)benzamide] | > 3 |
| COc1cc(F)cc(Oc2cc(F)c(C(=O)NS(C)(=O)=O)cc2F)c1 [Example 92, 2,5-difluoro-4-(3-fluoro-5-methoxyphenoxy)-N-(methylsulfonyl)benzamide] | > 3 |
| CC(C)c1ccccc1Oc1cc(F)c(C(=O)NS(C)(=O)=O)cc1F [Example 93, 2,5-difluoro-4-(2-isopropylphenoxy)-N-(methylsulfonyl)benzamide] | > 1 |
| CS(=O)(=O)NC(=O)c1cc(F)c(Oc2c(F)cc(F)cc2F)cc1F [Example 94, 2,5-difluoro-N-(methylsulfonyl)-4-(2,4,6-trifluorophenoxy)benzamide] | > 3 |
| CS(=O)(=O)NC(=O)c1cc(F)c(Oc2ccc(C#N)c(Cl)c2)cc1F [Example 95, 4-(3-chloro-4-cyanophenoxy)-2,5-difluoro-N-(methylsulfonyl)benzamide] | > 3 |
| CS(=O)(=O)NC(=O)c1cc(F)c(Oc2c(F)cccc2F)cc1F [Example 96, 4-(2,6-difluorophenoxy)-2,5-difluoro-N-(methylsulfonyl)benzamide] | > 3 |

| Structure (SMILES) | IC50 [µM] |
| --- | --- |
| CS(=O)(=O)NC(=O)c1cc(F)c(Oc2cc(F)cc(F)c2F)cc1F [Example 97, 2,5-difluoro-N-(methylsulfonyl)-4-(2,3,5-trifluorophenoxy)benzamide] | 7 |
| CCOc1ccccc1Oc1cc(F)c(C(=O)NS(C)(=O)=O)cc1F [Example 98, 4-(2-ethoxyphenoxy)-2,5-difluoro-N-(methylsulfonyl)benzamide] | > 1 |
| CS(=O)(=O)NC(=O)c1cc(F)c(Oc2ccc(OC(F)(F)F)cc2)cc1F [Example 100, 2,5-difluoro-N-(methylsulfonyl)-4-[4-(trifluoromethoxy)phenoxy]benzamide] | 1.1 |
| CS(=O)(=O)NC(=O)c1cc(F)c(Oc2cc(Cl)cc(Cl)c2)cc1F [Example 101, 4-(3,5-dichlorophenoxy)-2,5-difluoro-N-(methylsulfonyl)benzamide] | 1.5 |
| Cc1cc(Cl)ccc1Oc1cc(F)c(C(=O)NS(C)(=O)=O)cc1F [Example 102, 4-(4-chloro-2-methylphenoxy)-2,5-difluoro-N-(methylsulfonyl)benzamide] | 3.7 |
| CS(=O)(=O)NC(=O)c1cc(F)c(Oc2ccccc2OC(F)(F)F)cc1F [Example 103, 2,5-difluoro-N-(methylsulfonyl)-4-[2-(trifluoromethoxy)phenoxy]benzamide] | 3.2 |
| Cc1cccc(C)c1Oc1cc(F)c(C(=O)NS(C)(=O)=O)cc1F [Example 104, 4-(2,6-dimethylphenoxy)-2,5-difluoro-N-(methylsulfonyl)benzamide] | > 3 |
| CS(=O)(=O)NC(=O)c1cc(F)c(Oc2cc(Cl)ccc2Cl)cc1F [Example 105, 4-(2,5-dichlorophenoxy)-2,5-difluoro-N-(methylsulfonyl)benzamide] | > 3 |
| CS(=O)(=O)NC(=O)c1cc(F)c(Oc2ccccc2F)cc1F [Example 107, 2,5-difluoro-4-(2-fluorophenoxy)-N-(methylsulfonyl)benzamide] | 9.3 |
| COc1ccc(Cl)c(Oc2cc(F)c(C(=O)NS(C)(=O)=O)cc2F)c1 [Example 109, 4-(2-chloro-5-methoxyphenoxy)-2,5-difluoro-N-(methylsulfonyl)benzamide] | > 1 |
| Cc1ccc(Cl)c(Oc2cc(F)c(C(=O)NS(C)(=O)=O)cc2F)c1 [Example 110, 4-(2-chloro-5-methylphenoxy)-2,5-difluoro-N-(methylsulfonyl)benzamide] | > 1 |
| Cc1ccccc1Oc1cc(F)c(C(=O)NS(C)(=O)=O)cc1F [Example 111, 2,5-difluoro-4-(2-methylphenoxy)-N-(methylsulfonyl)benzamide] | > 3 |
| Cc1cc(Oc2cc(F)c(C(=O)NS(C)(=O)=O)cc2F)cc(C)c1C#N [Example 112, 4-(4-cyano-3,5-dimethylphenoxy)-2,5-difluoro-N-(methylsulfonyl)benzamide] | > 3 |
| CS(=O)(=O)NC(=O)c1cc(F)c(Oc2ccccc2C(F)(F)F)cc1F [Example 113, 2,5-difluoro-N-(methylsulfonyl)-4-[2-(trifluoromethyl)phenoxy]benzamide] | > 3 |
| Cc1ccc(F)cc1Oc1cc(F)c(C(=O)NS(C)(=O)=O)cc1F [Example 115, 2,5-difluoro-4-(5-fluoro-2-methylphenoxy)-N-(methylsulfonyl)benzamide] | > 3 |
| COc1ccc(Oc2cc(F)c(C(=O)NS(C)(=O)=O)cc2F)c(C#N)c1 [Example 116, 4-(2-cyano-4-methoxyphenoxy)-2,5-difluoro-N-(methylsulfonyl)benzamide] | > 3 |
| CS(=O)(=O)NC(=O)c1cc(F)c(Oc2ccc(F)cc2Cl)cc1F [Example 120, 4-(2-chloro-4-fluorophenoxy)-2,5-difluoro-N-(methylsulfonyl)benzamide] | > 3 |
